According to US12678433B2, “Compounds for treatment of hemolysis-and inflammasome-associated diseases” (New York Blood Center, Inc., priority 2020, dated 2026):

Legend:
[1] = test system: NLRP3 inflammasome pathway; experiment: NLRP3 inflammasome activation, IL-1β secretion by LPS-primed monocytes; assay type: cell-based, human; conditions: in the presence/absence of hemin
Protocol: FIG. 13A-D depicts human monocytes isolated from peripheral blood were cultured with LPS for 3 hours to prime pro-IL-1β production followed by addition of various NLRP3 pathway agonists to trigger IL-1β secretion without or with therapeutic reagents including hemin, quinine or hemin plus quinine (all at 2.5 μM concentration for all experiments except the dose response studies in FIGS. 13B and C). Levels of IL-1β, IL-6 and TNF-α in the culture supernatants was analyzed 30 min (for ATP treatment) or 2 hours (for nigericin and imiquimod) after addition of NLRP3 agonists. FIG. 13A: The effect of hemin, quinine and hemin plus quinine on IL-1β secretion triggered by various NLRP3 agonists. FIG. 13B: The dose dependent effect of hemin, quinine and hemin plus quinine. FIG. 13C: The effect of QA, CQ, AQ, and DHA in the presence/absence of hemin. FIG. 13D: The effect of hemin, quinine, or hemin plus quinine on IL-6 and TNF-α.

[2] = test system: purified naïve B cells from healthy donors; conditions: for effect on plasma cell differentiation without or with heme: 2.5 μM compound, without or with 5 μM heme; for inhibition of B cell proliferation / inhibition of plasma cell differentiation: at the highest concentrations
Protocol: Hemin and RBC lysate preparation. Hemin, dissolved in dimethyl sulfoxide (DMSO), stock concentration 10 mM, was diluted to 100 μM with serum-free RPMI 1640 culture medium just prior to addition to B cell cultures. For short-term experiments lasting less than 24 hr, a final concentration of 10 μM hemin was used whereas for longer-term culture up to 7 days, 2.5-5 μM final heme concentration was used. RBC lysates were freshly prepared (containing ~80 g/L hemoglobin) for same day use. Briefly, 4 ml whole blood from healthy donors was passed through Acrodisc WBC syringe filter (Pall Corporation) to remove white blood cells followed by two washes with Dulbecco's Phosphate Buffered Saline (D-PBS) (200×g, 10 min at room temperature with no brake) for removal of platelets. The RBC pellet was lysed with 3 times volume of distilled water for 10 min at 37° C. Cellular debris was pelleted by centrifugation at 4000×g for 10 min at 4° C. The RBC lysate was transferred to a new tube and 1/9 volume of 10×D-PBS added.
Cell isolation and culture. Peripheral blood mononuclear cells (PBMCs) were prepared by Ficoll (GE Healthcare) density gradient centrifugation from healthy donor leukopak products as well as from sickle peripheral blood apheresis waste bags. Human naïve and memory B cells were isolated from PBMCs using a human memory B Cell Isolation Kit (Miltenyi Biotec) by collecting CD27− B cells (naïve B cells) and CD27+ B cell (memory B cells) separately. […] RPMI 1640 culture medium was used for all cell culture experiments (supplemented with 10% FBS, 100-unit penicillin-streptomycin, […], 1 mM sodium pyruvate, all from Thermo Fisher Scientific). Purified B cells were stained with CFSE (Cat #: C34554, Thermo Fisher Scientific) and cultured in U-bottom 96 well plates (2.5×10^5/well/200 μl culture medium) in the presence of goat anti-human IgA+IgG+IgM (H+L) F(ab′)2 fragment (2.5 μg/ml, Jackson ImmunoResearch), CD154 (10 ng/ml, R&D Systems) and CpG (ODN 7909, 1 nM, Cat #: tlrl-2006-1) without IL-2 for analysis of only CD38+ plasmablast differentiation or with IL-2 (5 ng/ml, Cat #:1081-IL-020, R&D Systems) in experiments to detect CD27^hiBlimp-1+ plasma cells. In addition, heme and various inhibitors were added to the cultures at the start point and incubated for 7 days.
(§1) Cultured cells: stimulated B cells were transferred into U bottom 96 well plate and washed with 200 μl MACS buffer (D-PBS containing 0.5% BSA and 2 mM EDTA) at 300×g for 5 min at 4° C. After one wash, cells were stained for surface expression of CD19, CD38, CD27 using 25 μl staining buffer (anti-CD19, CD38, CD27 antibodies, diluted 200 fold with MACS buffer) for 30 min at 4° C. After one wash with 200 μl MACS buffer, cells were resuspended in 100 μl D-PBS and 50 μl Fixable Viability Dye eFluor™ 780 (1000 fold diluted with D-PBS, Thermo Fisher Scientific) was added for dead cell detection for 5 min at room temperature. Cells were washed one time with MACS buffer and 100 μl D-DPS was added just before flow cytometric analysis (LSRFortessa flow cytometer, BD Bioscience). For intracellular staining of IgG, Blimp-1 and HO-1, samples were first washed with 200 μl MACS buffer before addition of 150 μl Fixation/Permeabilization buffer (Thermo Fisher Scientific) for 45 min at 4° C. After fixation, samples were washed twice with 1× Permeabilization buffer (Thermo Fisher Scientific) and stained with 25 μl intracellular staining buffer (anti-human IgG, DOCK8, Blimp-1, HO-1 antibodies, diluted 200 fold with 1× Permeabilization buffer) for 45 min at 4° C., after which the cells were washed twice with Permeabilization buffer and 100p D-DPS was added prior to flow cytometric analysis.

HO-1 = HO-1 expression in stimulated B cells; assay type: cell-based, human; conditions: for HO-1 upregulation: 2.5 μM compound with 5 μM heme
From the text: HO-1 is a key enzyme for heme degradation with multiple biologic activities attributed to its enzymatic byproducts. We analyzed HO-1 expression levels in human B cells before and after stimulation with our polyclonal B cell activation cocktail. […] We also found higher HO-1 levels in DOCK8^hi plasma cells (FIG. 8B).

[3] = test system: naïve B cells from Allo(−) and Allo(+) SCD patients; experiment: 7-day stimulated naïve B cell culture from SCD patients; assay type: cell-based, human; conditions: for effect on heme-mediated inhibition of plasmablast differentiation: SnPPIX 2.5 μM, heme 2.5 μM
Protocol: Human samples. All studies were approved by the institutional Review Boards of the New York Blood Center (NYBC) and Montefiore Health Center. […] The blood samples from SCD patients were processed within 18 hours after collection. For circulating DOCK8 expression studies in healthy controls, peripheral blood samples from de-identified, race-matched healthy donors were used. Leukocyte enriched products from de-identified healthy donors were used for purification of B cells for in vitro culture studies.
Cell isolation and culture. Peripheral blood mononuclear cells (PBMCs) were prepared by Ficoll (GE Healthcare) density gradient centrifugation from healthy donor leukopak products as well as from sickle peripheral blood apheresis waste bags. Human naïve and memory B cells were isolated from PBMCs using a human memory B Cell Isolation Kit (Miltenyi Biotec) by collecting CD27− B cells (naïve B cells) and CD27+ B cell (memory B cells) separately. […] In addition, heme and various inhibitors were added to the cultures at the start point and incubated for 7 days.
as §1

SCD mice = experiment: RBC alloimmunization in SCD mice after huGPA RBC transfusion (anti-GPA antibody in plasma); assay type: in vivo, mouse; conditions: QA 12 mg/kg intraperitoneally twice per day
Protocol: FIG. 10A-C. Effects of heme and quinine on mouse B cell differentiation in vitro: Splenic B cells were purified from C57BL/6J mice (n=3), stained with CFSE and cultured (5×10^4/well) for 7 days in the presence of anti-mouse IgM, IgG F(ab)′2 (10 μg/ml), anti-mouse CD40 antibody (1 μg/ml) and CpG (ODN1826) (1 μg/ml) without or with different doses of quinine and in the absence or presence of 2.5 μM or 5 μM concentration of hemin. Fold difference in proliferated B cells (FIG. 10A) and CD138+ plasma B cells (FIG. 10B) are shown. FIG. 10C: Representative experiment in SCD mice following transfusion of RBCs expressing human GPA (huGPA RBCs) collected from mice transgenic for human GPA in the absence or presence of quinine (QA). Briefly, mice were transfused twice with […] of huGPA RBCs, each transfusion given one week apart. Mice were treated intraperitoneally twice per day with QA (12 mg/kg, reported to maintain serum quinine levels at 0.5~1 μM) or the same volume PBS. Levels of anti-GPA antibody in plasma were measured 7 days after the last transfusion by flow cytometry.

DOCK8 = DOCK8 expression and DOCK8hi/DOCK8lo subsets in stimulated B cells; assay type: cell-based, human; conditions: quinine in the presence of heme
From the text: We next tested the effect of cell-free heme on DOCK8 signaling during B cell differentiation. […] Heme treatment led to inhibition of CD27^hiBlimp-1^+ plasma cell differentiation (FIG. 2D, p=0.0195).

[4] = QA 12 mg/kg intraperitoneally twice per day; cited from earlier work

CCN(CC)Cc1cc(Nc2ccnc3cc(Cl)ccc23)ccc1O [AQ, amodiaquine]
effect of other hemin binding small molecules on the inflammasome activation pathway [1]: no inhibitory effect | effect on plasma cell differentiation without or with heme [2]: inhibited plasma cell differentiation in the absence or presence of heme | HO-1 upregulation (HO-1): not

NCC(=O)O.[C-]#[O+].[C-]#[O+].[C-]#[O+].[Cl][Ru] [CORM-3, carbon monoxide releasing molecule-3]
inhibition of B cell proliferation [2]: 38.7%±5.0% | inhibition of plasma cell differentiation [2]: 91.2%±2.9%

CCN(CC)CCCC(C)Nc1ccnc2cc(Cl)ccc12 (stereo not shown) [CQ, chloroquine]
effect of other hemin binding small molecules on the inflammasome activation pathway [1]: no inhibitory effect | effect on plasma cell differentiation without or with heme [2]: inhibited plasma cell differentiation in the absence or presence of heme | HO-1 upregulation (HO-1): not

C[C@H]1[C@@H](O)O[C@@H]2O[C@@]3(C)CC[C@H]4[C@H](C)CC[C@@H]1[C@@]24OO3 [DHA, dihydroartemisinin]
effect of other hemin binding small molecules on the inflammasome activation pathway [1]: no inhibitory effect

C=Cc1c2[n-]c(c1C)/C=c1\[n-]/c(c(C)c1C=C)=C\c1[n-]c(c(CCC(=O)O)c1C)C=c1[n-]/c(c(C)c1CCC(=O)O)=C\2.[Sn+4] [SnPPIX, tin protoporphyrin IX]
effect on heme-mediated inhibition of plasmablast differentiation ([3]; Allo(+) SCD patients): less effect | effect on heme-mediated inhibition of plasmablast differentiation ([3]; Allo(−) SCD patients): reversed heme-mediated inhibition | B cell proliferative responses, Allo(+) versus Allo(−) ([3]; in the presence of SnPPIX 2.5 μM): comparable | effect on heme-mediated inhibition of plasmablast cell differentiation ([2]; SnPPIX 2.5 μM with heme 2.5 μM): reversed | effect on differentiation ([2]; SnPPIX alone 2.5 μM): no effect | frequency of CD38+ plasmablasts ([2]; SnPPIX alone 2.5 μM, vs 6.3%±2.7%): 8.1%±3.5% | effect on B cell proliferation ([2]; heme 2.5 μM, SnPPIX 2.5 μM, alone or together): little to no effect

Cl.Cl.NCCNc1ncc(C(N)=O)c(Nc2cccc(C(F)(F)F)c2)n1 [Syk Inhibitor II]
HO-1 in stimulated B cells (HO-1; SYK inhibitor relative to no SYK inhibitor): induction of HO-1

C=CC1=C(C)/C(=C/C2=NC(=C\c3[nH]c(/C=C4\NC(=O)C(C)=C4C=C)c(C)c3CCC(=O)O)/C(CCC(=O)O)=C2C)NC1=O [biliverdin]
inhibition of B cell proliferation [2]: 13.3%±3.5% | inhibition of plasma cell differentiation [2]: 68.4%±18.6%

C=C[C@H]1C[N@@]2CC[C@H]1C[C@H]2[C@H](O)c1ccnc2ccc(OC)cc12 [quinine, (R)-(6-Methoxyquinolin-4-yl)[(1S,2S,4S,5R)-5-vinylquinuclidin-2-yl]methanol]
RBC alloimmunization levels in vivo (SCD mice): did not lower | effect on DOCK8 expression (DOCK8): no significant effect | serum quinine levels [4]: 0.5~1 μM | effect on resistance to heme suppression ([3]; Allo(+) patients, quinine plus heme): reversed resistance to heme suppression | effect on heme-mediated suppression of plasma cells ([3]; Allo(−) SCD patients, quinine plus heme): further increased heme-mediated suppression | effect on plasma cell differentiation in the absence of heme ([3]; both groups of SCD patients): weak but significant inhibitory effect | effect on plasma cell differentiation without or with heme [2]: required the presence of heme | cytotoxic effects (viability studies) ([2]; except at the highest doses of heme plus quinine): minimal cytotoxic effects

B1: hemopexin: a heme scavenging protein (protein, UniProt P02790 24-462, looked up)
Hemopexin: TPLPPTSAHGNVAEGETKPDPDVTERCSDGWSFDATTLDDNGTMLFFKGEFVWKSHKWDRELISERWKNFPSPVDAAFRQGHNSVFLIKGDKVWVYPPEKKEKGYPKLLQDEFPGIPSPLDAAVECHRGECQAEGVLFFQGDREWFWDLATGTMKERSWPAVGNCSSALRWLGRYYCFQGNQFLRFDPVRGEVPPRYPRDVRDYFMPCPGRGHGHRNGTGHGNSTHHGPEYMRCSPHLVLSALTSDNHGATYAFSGTHYWRLDTSRDGWHSWPIAHQWPQGPSAVDAAFSWEEKLYLVQGTQVYVFLTKGGYTLVSGYPKRLEKEVGTPHGIILDSVDAAFICPGSSRLHIMAGRRLWWLDLKSGAQATWTELPWPHEKVDGALCMEKSLGPNSCSANGPGLYLIHGPNLYCYSDVEKLNAAKALPQPQNVTSLLGCTH
effect of pre-incubation with hemopexin on inhibition by RBC lysate or free heme ([2]; hemopexin 2.5 μM, RBC lysate 1 g/L hemoglobin or heme 2.5 μM): reversed the inhibitory effect
